Source: the supplement of paper PMC10307832

Experiments:
Assay in all cases: relative viability (nuclei count vs DMSO), 5 days (fraction); higher = more cells survive
[1] = system: ChaGo-K-1
Method in brief: (§1)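 Dosing by pin tool came one day after lung cancer cell lines were seeded in 1536-well plates, using either one drug or a fixed anchor-drug dose plus five library-drug doses (not always all listed) in √10 steps. After 5 days, nuclei were counted on 4× images. Relative viability is treated-well nuclei count divided by vehicle-well nuclei count, and values are medians of duplicate plates.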

[2] = system: EMC-BAC-2
Method in brief: as §1

[3] = system: EPLC-272H
Method in brief: as §1

[4] = system: HCC-44
Method in brief: as §1

[5] = system: HOP-62
Method in brief: as §1

[6] = system: LCLC-103H
Method in brief: as §1

[7] = system: LOU-NH91
Method in brief: as §1

[8] = system: NCI-H1437
Method in brief: as §1

[9] = system: NCI-H1793
Method in brief: as §1

[10] = system: NCI-H2009
Method in brief: as §1

[11] = system: NCI-H2023
Method in brief: as §1

[12] = system: NCI-H2126
Method in brief: as §1

[13] = system: NCI-H2170
Method in brief: as §1

[14] = system: NCI-H2347
Method in brief: as §1

[15] = system: NCI-H23
Method in brief: as §1

[16] = system: NCI-H2405
Method in brief: as §1

[17] = system: NCI-H441
Method in brief: as §1

[18] = system: NCI-H460
Method in brief: as §1

[19] = system: NCI-H520
Method in brief: as §1

[20] = system: NCI-H647
Method in brief: as §1

[21] = system: NCI-H650
Method in brief: as §1

[22] = system: NCI-H727
Method in brief: as §1

[23] = system: SW 1573
Method in brief: as §1

Structure (SMILES): Cc1cnc(-c2cnc(NCCNc3ccc(C#N)cn3)nc2-c2ccc(Cl)cc2Cl)[nH]1 + O=C(c1cc(Cc2n[nH]c(=O)c3ccccc23)ccc1F)N1CCN(C(=O)C2CC2)CC1 [Olaparib] (partner 8 µM)
- relative viability ([1]; first compound 0.08 µM): 0.406
- relative viability ([1]; first compound 0.253 µM): 0.361
- relative viability ([1]; first compound 0.8 µM): 0.362
- relative viability ([1]; first compound 2.53 µM): 0.322
- relative viability ([2]; first compound 0.08 µM): 0.498
- relative viability ([2]; first compound 0.253 µM): 0.466
- relative viability ([2]; first compound 0.8 µM): 0.504
- relative viability ([2]; first compound 2.53 µM): 0.397
- relative viability ([3]; first compound 0.08 µM): 0.731
- relative viability ([3]; first compound 0.253 µM): 0.779
- relative viability ([3]; first compound 0.8 µM): 0.739
- relative viability ([3]; first compound 2.53 µM): 0.666
- relative viability ([4]; first compound 0.08 µM): 0.934
- relative viability ([4]; first compound 0.253 µM): 0.946
- relative viability ([4]; first compound 0.8 µM): 1.04
- relative viability ([4]; first compound 2.53 µM): 0.989
- relative viability ([5]; first compound 0.08 µM): 0.354
- relative viability ([5]; first compound 0.253 µM): 0.362
- relative viability ([5]; first compound 0.8 µM): 0.502
- relative viability ([5]; first compound 2.53 µM): 0.324
- relative viability ([6]; first compound 0.08 µM): 0.837
- relative viability ([6]; first compound 0.253 µM): 0.673
- relative viability ([6]; first compound 0.8 µM): 0.731
- relative viability ([6]; first compound 2.53 µM): 0.818
- relative viability ([7]; first compound 0.08 µM): 0.94
- relative viability ([7]; first compound 0.253 µM): 0.868
- relative viability ([7]; first compound 0.8 µM): 0.962
- relative viability ([7]; first compound 2.53 µM): 0.877
- relative viability ([8]; first compound 0.08 µM): 0.605
- relative viability ([8]; first compound 0.253 µM): 0.606
- relative viability ([8]; first compound 0.8 µM): 0.596
- relative viability ([8]; first compound 2.53 µM): 0.598
- relative viability ([9]; first compound 0.08 µM): 1.01
- relative viability ([9]; first compound 0.253 µM): 0.755
- relative viability ([9]; first compound 0.8 µM): 0.957
- relative viability ([9]; first compound 2.53 µM): 0.867
- relative viability ([10]; first compound 0.08 µM): 0.746
- relative viability ([10]; first compound 0.253 µM): 0.661
- relative viability ([10]; first compound 0.8 µM): 0.697
- relative viability ([10]; first compound 2.53 µM): 0.605
- relative viability ([11]; first compound 0.08 µM): 0.502
- relative viability ([11]; first compound 0.253 µM): 0.51
- relative viability ([11]; first compound 0.8 µM): 0.439
- relative viability ([11]; first compound 2.53 µM): 0.36
- relative viability ([12]; first compound 0.08 µM): 0.922
- relative viability ([12]; first compound 0.253 µM): 0.908
- relative viability ([12]; first compound 0.8 µM): 0.89
- relative viability ([12]; first compound 2.53 µM): 0.898
- relative viability ([13]; first compound 0.08 µM): 0.601
- relative viability ([13]; first compound 0.8 µM): 0.518
- relative viability ([13]; first compound 2.53 µM): 0.519
- relative viability ([14]; first compound 0.08 µM): 0.623
- relative viability ([14]; first compound 0.253 µM): 0.495
- relative viability ([14]; first compound 0.8 µM): 0.663
- relative viability ([14]; first compound 2.53 µM): 0.587
- relative viability ([15]; first compound 0.08 µM): 0.316
- relative viability ([15]; first compound 0.253 µM): 0.297
- relative viability ([15]; first compound 0.8 µM): 0.303
- relative viability ([15]; first compound 2.53 µM): 0.367
- relative viability ([16]; first compound 0.08 µM): 0.882
- relative viability ([16]; first compound 0.253 µM): 0.771
- relative viability ([16]; first compound 0.8 µM): 0.88
- relative viability ([16]; first compound 2.53 µM): 0.661
- relative viability ([17]; first compound 0.08 µM): 0.568
- relative viability ([17]; first compound 0.8 µM): 0.536
- relative viability ([17]; first compound 2.53 µM): 0.387
- relative viability ([18]; first compound 0.08 µM): 0.323
- relative viability ([18]; first compound 0.8 µM): 0.342
- relative viability ([18]; first compound 2.53 µM): 0.402
- relative viability ([19]; first compound 0.08 µM): 0.366
- relative viability ([19]; first compound 0.253 µM): 0.3
- relative viability ([19]; first compound 0.8 µM): 0.354
- relative viability ([19]; first compound 2.53 µM): 0.311
- relative viability ([20]; first compound 0.08 µM): 0.528
- relative viability ([20]; first compound 0.253 µM): 0.558
- relative viability ([20]; first compound 0.8 µM): 0.528
- relative viability ([20]; first compound 2.53 µM): 0.429
- relative viability ([21]; first compound 0.08 µM): 0.41
- relative viability ([21]; first compound 0.253 µM): 0.36
- relative viability ([21]; first compound 0.8 µM): 0.479
- relative viability ([21]; first compound 2.53 µM): 0.393
- relative viability ([22]; first compound 0.08 µM): 0.69
- relative viability ([22]; first compound 0.253 µM): 0.768
- relative viability ([22]; first compound 0.8 µM): 0.711
- relative viability ([22]; first compound 2.53 µM): 0.735
- relative viability ([23]; first compound 0.08 µM): 0.532
- relative viability ([23]; first compound 0.253 µM): 0.406
- relative viability ([23]; first compound 0.8 µM): 0.494
- relative viability ([23]; first compound 2.53 µM): 0.233

Structure (SMILES): Cc1cnc(-c2cnc(NCCNc3ccc(C#N)cn3)nc2-c2ccc(Cl)cc2Cl)[nH]1 + Nc1ncn([C@H]2C[C@H](O)[C@@H](CO)O2)c(=O)n1 [Decitabine] (partner 2 µM)
- relative viability ([1]; first compound 0.08 µM): 0.546
- relative viability ([1]; first compound 0.253 µM): 0.485
- relative viability ([1]; first compound 0.8 µM): 0.499
- relative viability ([1]; first compound 2.53 µM): 0.466
- relative viability ([2]; first compound 0.08 µM): 1.15
- relative viability ([2]; first compound 0.253 µM): 0.911
- relative viability ([2]; first compound 0.8 µM): 0.912
- relative viability ([2]; first compound 2.53 µM): 0.995
- relative viability ([3]; first compound 0.08 µM): 0.436
- relative viability ([3]; first compound 0.253 µM): 0.353
- relative viability ([3]; first compound 0.8 µM): 0.352
- relative viability ([3]; first compound 2.53 µM): 0.467
- relative viability ([4]; first compound 0.08 µM): 0.846
- relative viability ([4]; first compound 0.253 µM): 0.561
- relative viability ([4]; first compound 0.8 µM): 0.925
- relative viability ([4]; first compound 2.53 µM): 1.02
- relative viability ([5]; first compound 0.08 µM): 0.204
- relative viability ([5]; first compound 0.253 µM): 0.226
- relative viability ([5]; first compound 0.8 µM): 0.236
- relative viability ([5]; first compound 2.53 µM): 0.174
- relative viability ([6]; first compound 0.08 µM): 0.732
- relative viability ([6]; first compound 0.253 µM): 0.722
- relative viability ([6]; first compound 0.8 µM): 0.751
- relative viability ([6]; first compound 2.53 µM): 0.728
- relative viability ([7]; first compound 0.08 µM): 0.818
- relative viability ([7]; first compound 0.253 µM): 0.799
- relative viability ([7]; first compound 0.8 µM): 0.852
- relative viability ([7]; first compound 2.53 µM): 0.802
- relative viability ([8]; first compound 0.08 µM): 0.538
- relative viability ([8]; first compound 0.253 µM): 0.511
- relative viability ([8]; first compound 0.8 µM): 0.558
- relative viability ([8]; first compound 2.53 µM): 0.563
- relative viability ([9]; first compound 0.08 µM): 0.494
- relative viability ([9]; first compound 0.253 µM): 0.514
- relative viability ([9]; first compound 0.8 µM): 0.583
- relative viability ([9]; first compound 2.53 µM): 0.541
- relative viability ([10]; first compound 0.08 µM): 0.426
- relative viability ([10]; first compound 0.253 µM): 0.37
- relative viability ([10]; first compound 0.8 µM): 0.404
- relative viability ([10]; first compound 2.53 µM): 0.395
- relative viability ([11]; first compound 0.08 µM): 0.232
- relative viability ([11]; first compound 0.253 µM): 0.195
- relative viability ([11]; first compound 0.8 µM): 0.241
- relative viability ([11]; first compound 2.53 µM): 0.228
- relative viability ([12]; first compound 0.08 µM): 0.585
- relative viability ([12]; first compound 0.253 µM): 0.602
- relative viability ([12]; first compound 0.8 µM): 0.539
- relative viability ([12]; first compound 2.53 µM): 0.58
- relative viability ([13]; first compound 0.08 µM): 0.481
- relative viability ([13]; first compound 0.8 µM): 0.484
- relative viability ([13]; first compound 2.53 µM): 0.406
- relative viability ([14]; first compound 0.08 µM): 0.708
- relative viability ([14]; first compound 0.253 µM): 0.55
- relative viability ([14]; first compound 0.8 µM): 0.65
- relative viability ([14]; first compound 2.53 µM): 0.65
- relative viability ([15]; first compound 0.08 µM): 0.382
- relative viability ([15]; first compound 0.253 µM): 0.293
- relative viability ([15]; first compound 0.8 µM): 0.323
- relative viability ([15]; first compound 2.53 µM): 0.387
- relative viability ([16]; first compound 0.08 µM): 0.799
- relative viability ([16]; first compound 0.253 µM): 0.734
- relative viability ([16]; first compound 0.8 µM): 0.758
- relative viability ([16]; first compound 2.53 µM): 0.645
- relative viability ([17]; first compound 0.08 µM): 0.238
- relative viability ([17]; first compound 0.8 µM): 0.251
- relative viability ([17]; first compound 2.53 µM): 0.255
- relative viability ([18]; first compound 0.08 µM): 0.537
- relative viability ([18]; first compound 0.253 µM): 0.454
- relative viability ([18]; first compound 0.8 µM): 0.54
- relative viability ([18]; first compound 2.53 µM): 0.488
- relative viability ([19]; first compound 0.08 µM): 0.531
- relative viability ([19]; first compound 0.253 µM): 0.504
- relative viability ([19]; first compound 0.8 µM): 0.563
- relative viability ([19]; first compound 2.53 µM): 0.546
- relative viability ([20]; first compound 0.08 µM): 0.381
- relative viability ([20]; first compound 0.253 µM): 0.36
- relative viability ([20]; first compound 0.8 µM): 0.349
- relative viability ([20]; first compound 2.53 µM): 0.297
- relative viability ([21]; first compound 0.08 µM): 0.356
- relative viability ([21]; first compound 0.253 µM): 0.339
- relative viability ([21]; first compound 0.8 µM): 0.302
- relative viability ([21]; first compound 2.53 µM): 0.329
- relative viability ([22]; first compound 0.08 µM): 0.867
- relative viability ([22]; first compound 0.253 µM): 0.937
- relative viability ([22]; first compound 0.8 µM): 0.838
- relative viability ([22]; first compound 2.53 µM): 0.766
- relative viability ([23]; first compound 0.08 µM): 0.583
- relative viability ([23]; first compound 0.253 µM): 0.457
- relative viability ([23]; first compound 0.8 µM): 0.474
- relative viability ([23]; first compound 2.53 µM): 0.354
